# Data from ChEMBL document CHEMBL1201862, “PubChem BioAssay data set” (2004).
# Active and inactive are the calls of the source.
# Assays:
# [1] = biological target: Endoplasmic reticulum aminopeptidase 1 (Homo sapiens, UniProt Q9NZ08); test: ERAP1 aminopeptidase inhibitors, dose response, biochemical, cherry-pick, set 2, plate reader (AID 743314)
# fMet-Leu-Phe receptor = fMet-Leu-Phe receptor (Homo sapiens, UniProt P21462); test: FPR ligands, dose response (AID 519); format: functional
# Beta-galactosidase = Beta-galactosidase (Escherichia coli, UniProt Q8VNN2); test: Dose response counterscreen for EBI2 assay utilizing the enzyme, b-galactosidase.; format: functional
# Major prion protein = Major prion protein (Homo sapiens, UniProt P04156); format: functional, cell-based
# cells [2] = test: cells
# [3] = biological target: Disintegrin and metalloproteinase domain-containing protein 17 (Homo sapiens, UniProt P78536); test: exosite inhibitors of ADAM17, dose response, biochemical (AID 743260)
# [4] = ADAM10 protease inhibitors, dose response, selectivity assay for ADAM17 exosite inhibitor project, biochemical, FRET peptide substrate, recombinant human ADAM10 (AID 743259);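 also: ADAM10 enzyme cleaving a FRET peptide substrate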
# Cryptococcus neoformans [5] = test: Cryptococcus growth inhibition by alamar blue – cell lysis, cherry-picks, replicate tests, mechanism study for C. neoformans antifungal project, dose response (AID 686999); format: functional, organism-based
# Cryptococcus neoformans [6] = test: PubChem AID 686997; format: functional, organism-based
# [7] = biological target: T1, Rac GTPase-activating protein 1 (Homo sapiens, UniProt Q9H0H5); test: MgcRacGAP GTPase-activating activity inhibitors, confirmation, biochemical, ADP Hunter fluorescence, primary and confirmatory (AID 624330); format: functional
# T1 sequence (Q9H0H5 whole entry): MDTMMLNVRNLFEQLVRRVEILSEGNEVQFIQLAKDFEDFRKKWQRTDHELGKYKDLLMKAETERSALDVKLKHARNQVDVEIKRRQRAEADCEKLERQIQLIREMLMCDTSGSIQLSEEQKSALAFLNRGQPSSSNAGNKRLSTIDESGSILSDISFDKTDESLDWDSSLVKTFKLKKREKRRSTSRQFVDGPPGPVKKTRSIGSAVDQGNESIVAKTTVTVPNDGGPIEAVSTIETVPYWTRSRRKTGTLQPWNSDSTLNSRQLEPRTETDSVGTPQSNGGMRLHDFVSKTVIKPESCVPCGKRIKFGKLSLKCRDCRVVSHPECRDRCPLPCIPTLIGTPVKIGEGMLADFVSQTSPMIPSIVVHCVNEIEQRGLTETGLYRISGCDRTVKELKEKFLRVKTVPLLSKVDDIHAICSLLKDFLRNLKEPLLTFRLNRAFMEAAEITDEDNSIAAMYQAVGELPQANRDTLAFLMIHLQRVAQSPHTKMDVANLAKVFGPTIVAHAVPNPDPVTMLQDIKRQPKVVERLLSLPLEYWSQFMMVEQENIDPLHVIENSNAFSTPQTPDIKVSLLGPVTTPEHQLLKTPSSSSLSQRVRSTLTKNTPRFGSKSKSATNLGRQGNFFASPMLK
# [8] = biological target: Dual specificity tyrosine-phosphorylation-regulated kinase 1A (Rattus norvegicus, UniProt Q63470); format: biochemical, Homo sapiens
# [9] = Counterscreen for activators of the function of SWI/SNF related, matrix associated, actin dependent regulator of chromatin, subfamily a, member 2 (SMARCA2, BRM): Luminescence-based cell-based high throughput dose response assay to identify non-selective compounds using the VP16 reporter assay.; format: functional
# [10] = C. albicans growth with fluconazole, confirmation, fluorescence, retest (AID 2467); format: functional, cell-based
# Melanocortin receptor 4 = Melanocortin receptor 4 (Homo sapiens, UniProt P32245); format: functional, cell-based;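 also: Cell-based assay with luminescence read-out, confirmatory dose-response testing for agonist activity of biased ligands at MC4R; human U2OS cells with tagged receptor and beta-arrestin; potency of agonists that increase receptor coupling to beta-arrestin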
# [11] = microbe, parasite or virus in culture; format: functional; conditions: Mycobacterium tuberculosis
# [12] = HepG2 cell cytotoxicity, dose response, cytotoxicity control for non-replicating M. tuberculosis project (AID 489018); format: functional; conditions: Mycobacterium tuberculosis
# [13] = biological target: T2, DNA repair protein RAD52 homolog (Homo sapiens, UniProt P43351); format: functional, biochemical
# T2 sequence (P43351 whole entry): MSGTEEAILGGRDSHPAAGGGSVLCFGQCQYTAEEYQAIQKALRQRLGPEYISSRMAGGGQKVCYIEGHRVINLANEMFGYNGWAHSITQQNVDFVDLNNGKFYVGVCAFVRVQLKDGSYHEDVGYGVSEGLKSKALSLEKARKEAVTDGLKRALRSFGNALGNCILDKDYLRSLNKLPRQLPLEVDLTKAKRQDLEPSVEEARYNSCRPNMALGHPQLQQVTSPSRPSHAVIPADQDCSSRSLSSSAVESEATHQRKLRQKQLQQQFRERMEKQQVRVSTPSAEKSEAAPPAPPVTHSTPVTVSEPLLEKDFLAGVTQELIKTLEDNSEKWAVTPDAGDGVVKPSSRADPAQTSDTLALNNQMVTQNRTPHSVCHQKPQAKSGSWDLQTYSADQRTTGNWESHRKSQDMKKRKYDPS
# P388 = test: cells; format: functional; conditions: Mus musculus
# Streptokinase A = biological target: T3, Streptokinase A (Streptococcus pyogenes serotype M1, UniProt P10520); test: S. pyogenes streptokinase expression inhibitors, potency, dose response, plasminogen activation absorbance, OD405 (AID 1914); format: functional, Streptococcus pyogenes M1 GAS;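 also: secreted streptokinase activity via plasminogen activation per viability signal from cell pellet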
# T3 sequence (P10520 whole entry): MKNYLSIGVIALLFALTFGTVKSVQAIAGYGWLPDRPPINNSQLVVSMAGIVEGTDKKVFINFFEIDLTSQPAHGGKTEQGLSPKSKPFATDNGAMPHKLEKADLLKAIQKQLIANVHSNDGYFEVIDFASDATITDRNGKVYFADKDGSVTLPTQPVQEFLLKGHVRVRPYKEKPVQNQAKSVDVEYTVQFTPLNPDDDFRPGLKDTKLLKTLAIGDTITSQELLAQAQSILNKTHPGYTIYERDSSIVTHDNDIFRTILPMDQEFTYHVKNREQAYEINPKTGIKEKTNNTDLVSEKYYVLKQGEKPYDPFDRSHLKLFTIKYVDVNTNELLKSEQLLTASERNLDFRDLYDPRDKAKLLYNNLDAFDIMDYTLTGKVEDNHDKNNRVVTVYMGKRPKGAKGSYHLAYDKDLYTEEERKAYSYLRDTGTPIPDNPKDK
# BJ [14] = test: cytotoxicity toward BJ-TERT-LT-ST fibroblasts, dose response, cell-based, RAS-independent, luminescence (AID 1935); format: functional; conditions: Homo sapiens;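 also: BJ fibroblasts immortalized with TERT plus LT and ST oncogenes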
# [15] = THP-1 cell cytotoxicity, dose response, cytotoxicity control for non-replicating M. tuberculosis project (AID 489025); format: functional
# Streptococcus = test: Group A Streptococcus viability loss, dose response, counter-screen for streptokinase expression inhibitor project, luminescence, BacTiterGlo (AID 1915); format: functional, organism-based;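 also: potency for reduction of bacterial viability or growth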
# [16] = HeLa cell cytotoxicity, dose response, cytotoxicity control for MgcRacGAP inhibitor project (AID 624300); format: functional
# [17] = Vero E6 cell cytotoxicity, dose response, cytotoxicity control for non-replicating M. tuberculosis project, secondary assay (AID 492998); format: functional, VeroE6; conditions: Vero C1008
# BJ [18] = test: cytotoxicity toward BJ-TERT fibroblasts, dose response, cell-based, RAS-independent, luminescence (AID 1933); format: functional; conditions: Homo sapiens
# HEK293 [19] = test: cells; conditions: Homo sapiens
# SN12K1 = test: cells; format: functional; conditions: Homo sapiens
# cells [20] = format: functional
# [21] = NIH-3T3 fibroblast cytotoxicity, dose response, cytotoxicity control, cell-based, fluorescence, Alamar Blue, secondary assay (AID 2327); format: functional;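 also: NIH-3T3 mouse fibroblasts cultured with fluconazole at 8 µg/mL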
# [22] = biological target: Induced myeloid leukemia cell differentiation protein Mcl-1 (Homo sapiens, UniProt Q07820); format: functional
# [23] = biological target: T4, Heat shock factor protein 1 (Mus musculus, UniProt P38532); test: HSF1 potentiators in luciferase reporter cells, confirmation, cell-based, NIH3T3, luminescence, dose retest (AID 435004); format: functional;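 also: stress induced by proteasome inhibitor MG132 added 30 min after compound; luciferase reporter driven by HSF1 response element in NIH3T3 cells; actives raise luminescence as potentiators of the MG132 stress response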
# T4 sequence (P38532 whole entry): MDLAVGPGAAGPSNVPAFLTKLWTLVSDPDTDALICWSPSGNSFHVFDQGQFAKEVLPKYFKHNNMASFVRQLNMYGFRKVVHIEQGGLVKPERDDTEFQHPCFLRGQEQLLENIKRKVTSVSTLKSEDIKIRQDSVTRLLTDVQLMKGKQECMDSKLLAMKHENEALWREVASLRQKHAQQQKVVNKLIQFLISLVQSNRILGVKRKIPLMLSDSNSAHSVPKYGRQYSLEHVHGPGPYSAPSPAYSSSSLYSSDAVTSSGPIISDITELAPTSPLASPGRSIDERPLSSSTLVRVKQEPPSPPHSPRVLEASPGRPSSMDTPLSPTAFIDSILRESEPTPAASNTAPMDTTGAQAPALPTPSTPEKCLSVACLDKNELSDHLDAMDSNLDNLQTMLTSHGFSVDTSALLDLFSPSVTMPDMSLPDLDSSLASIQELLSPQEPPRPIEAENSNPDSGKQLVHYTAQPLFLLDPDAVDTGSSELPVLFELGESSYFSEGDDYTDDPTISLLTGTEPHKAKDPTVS
# HEK293 [24] = test: cells; conditions: Homo sapiens; remark: listed apart in the source
# [25] = cytotoxicity toward DRD oncogenic fibroblasts, dose response, cell-based, non-viral oncogenic, luminescence (AID 1934); format: functional; conditions: Homo sapiens
# P388/ADR = test: cells; format: functional; conditions: Mus musculus
# INS1 = test: beta cell apoptosis inhibitors, cytokine rescue, dose response, luminescence, retest (AID 449756); format: functional, cell-based; conditions: Rattus norvegicus;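 also: cell death triggered by IL-1 beta plus TNF-alpha plus IFN-gamma mixture; protective hits raise ATP signal compared with cytokine alone wells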
# [26] = test system: Streptococcus sp. 'group A'; test: growth inhibition of control SK(-) GAS strain, dose response, counter-screen for streptokinase expression inhibitor project, luminescence, kanamycin, BacTiterGlo, confirmation (AID 1900); format: functional, organism-based
# [27] = biological target: SWI/SNF-related matrix-associated actin-dependent regulator of chromatin subfamily A member 2 (Homo sapiens, UniProt P51531); test: Luminescence-based cell-based high throughput dose response assay to identify activators of the function of SWI/SNF related, matrix associated, actin dependent regulator of chromatin, subfamily a, member 2 (SMARCA2, BRM).; format: functional
# BJ [28] = test: cells; format: functional, cell-based; conditions: Homo sapiens
compound,measurement,setting,value
CC1CCN(Cc2cc(=O)oc3cc(O)c(Cl)cc23)CC1,AC50,[1],6.33 µM (active)
COc1ccc(-c2cn3cccnc3n2)cc1NC(=O)C1CCCC1,Ki,fMet-Leu-Phe receptor,> 66.7 µM (inactive)
COc1ccccc1N1CCN(C(=O)c2cc3c(s2)-c2ccccc2OC3)CC1,IC50,Beta-galactosidase,> 80 µM (inactive)
CCOc1ccc(-n2nc3c(S)nnc(C)c3c2C)cc1,IC50,Major prion protein,0.321 µM (active)
same,IC50,cells [2],> 138 µM (inactive)
CCOC(=O)CC(SP1(=S)OCC2(CCCCO2)C(C2CCCCO2)O1)C(=O)OCC (stereo not drawn),IC50,[3],32.8 µM (inactive)
same,IC50,[4],56.3 µM (inactive)
COC(=O)C1=C(C)N(Cc2ccccc2)C(=S)NC1c1ccc(Br)cc1 (stereo not drawn),AC50,Cryptococcus neoformans [5],35 µM (active)
same,AC50,Cryptococcus neoformans [6],25 µM (active)
COc1ccc2[nH]c3c(C)c4ccncc4c(C)c3c2c1,IC50,[7],28.8 µM (active)
same,AC50,[8],2.86 µM (active)
same,EC50,[9],> 91.3 µM (inactive)
same,EC50,[10],0.698 µM (active)
same,EC50,Melanocortin receptor 4,> 89.3 µM (inactive)
same,CC50,[11],0.838 µM (active)
same,CC50,[12],8.79 µM (active)
same,AC50,[13],< 11.1 µM (active)
same,GI50,P388,0.239 µM (active)
same,EC50,Streptokinase A,> 150 µM (not active)
same,EC50,BJ [14],4.95 µM (inconclusive)
same,CC50,[15],2.94 µM (active)
same,EC50,Streptococcus,8.86 µM (active)
same,CC50,[16],31.2 µM (active)
same,CC50,[17],0.93 µM (active)
same,EC50,BJ [18],3.65 µM (inconclusive)
same,EC50,HEK293 [19],> 59.7 µM (inactive)
same,GI50,SN12K1,0.245 µM (active)
same,IC50,cells [20],0.37 µM (active)
same,EC50,[21],4.36 µM (inconclusive)
same,IC50,[22],> 54 µM (active)
same,EC50,[23],> 260 µM (inconclusive)
same,EC50,HEK293 [24],> 59.7 µM (inactive)
same,EC50,[25],2.51 µM (active)
same,GI50,P388/ADR,0.439 µM (active)
same,AC50,INS1,1.93 µM (active)
same,EC50,[26],2.52 µM (active)
same,EC50,[27],> 3.38 µM (active)
same,EC50,BJ [28],9.28 µM (inconclusive)
